# In US7138361B2, “Herbicidal heterocycles” (E. I. du Pont de Nemours and Company, priority 2000, dated 2006):
# How the values were obtained:
# Format in all cases: in vivo
# [1] = test system: rice (Oryza saliva); experiment: Test C flooded paddy test; conditions: for Rice plant response rating: scale 0 to 100, 0 no effect, 100 complete control
# Method in brief: (§1)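 Plants were grown to the 2-leaf stage under flooded paddy conditions and treated. They were then kept in a greenhouse for 12 to 14 days and visually rated against untreated controls on a 0–100 scale, where 0 is no effect and 100 is complete control.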
# [2] = test system: duck salad (Heteranthera limosa); experiment: Test C flooded paddy test; conditions: for Ducksalad plant response rating: scale 0 to 100, 0 no effect, 100 complete control
# Method in brief: as §1
# [3] = test system: barnyardgrass (Echinochloa crus-galli); experiment: Test C flooded paddy test; conditions: for Barnyardgrass plant response rating: scale 0 to 100, 0 no effect, 100 complete control
# Method in brief: as §1
# [4] = test system: Sunflower; experiment: Test C preemergence; conditions: scale 0 to 100
# [5] = Flooded Paddy, Rate 500 g/ha, scale 0 to 100
# [6] = flooded paddy test, Rate 62 g/ha, scale 0 to 100 (0 no effect, 100 complete control)
# [7] = flooded paddy test, Rate 125 g/ha, scale 0 to 100 (0 no effect, 100 complete control)
SMILES,"Plant response rating, Rice [1, 5]","Rice plant response rating ([1]; Flooded Paddy, Rate 250 g/ha)","Plant response rating, Rice [1, 6]","Plant response rating, Rice [1, 7]","Plant response rating, Ducksalad [2, 5]","Ducksalad plant response rating ([2]; Flooded Paddy, Rate 250 g/ha)","Plant response rating, Ducksalad [2, 6]","Plant response rating, Ducksalad [2, 7]","Plant response rating, Barnyardgrass [3, 5]","Barnyardgrass plant response rating ([3]; Flooded Paddy, Rate 250 g/ha)","Plant response rating, Barnyardgrass [3, 6]","Plant response rating, Barnyardgrass [3, 7]","Rice plant response rating ([1]; Flooded Paddy, Rate 500 g/ha)","Ducksalad plant response rating ([2]; Flooded Paddy, Rate 500 g/ha)","Barnyardgrass plant response rating ([3]; Flooded Paddy, Rate 500 g/ha)","Plant response rating, Sunflower ([4]; Rate 16 g/ha)","Plant response rating, Sunflower ([4]; Rate 31 g/ha)"
CC(C)(C)c1ccn(C2SCN(c3cccc(C(F)(F)F)c3)C2=O)n1 (stereo not drawn) [Compound 1],50,0,0,0,100,90,60,90,100,30,20,80,,,,,
O=C1C(n2ccc(C3CCC3)n2)OCN1c1cccc(C(F)(F)F)c1 (stereo not drawn) [Compound 39],,0,0,0,,70,20,60,,100,80,80,70,100,100,,
CC(C)(C)c1ccn(C2CCN(c3cccc(Cl)c3)C2=O)n1 (stereo not drawn) [Compound 43],,0,0,0,,30,0,20,,100,30,80,30,80,100,0,0
CC(C)c1ccn(C2SCN(c3cccc(OC(F)F)c3)C2=O)n1 (stereo not drawn) [Compound 44],,90,80,80,,100,50,90,,100,90,100,90,100,100,,
O=C1C(n2ccc(C3CCC3)n2)SCN1c1cccc(OC(F)F)c1 (stereo not drawn) [Compound 45],,70,0,50,,100,50,80,,100,70,100,100,100,100,,
CC1(c2ccn(C3OCN(c4cccc(C(F)(F)F)c4)C3=O)n2)CC1 (stereo not drawn) [Compound 62],,50,0,0,,0,0,0,,20,0,20,50,0,80,,
CC1(c2ccn(C3SCN(c4cccc(OC(F)(F)F)c4)C3=O)n2)CC1 (stereo not drawn) [Compound 63],,40,0,20,,80,20,20,,70,20,40,40,100,100,,
CC1(c2ccn(C3SCN(c4cccc(C(F)(F)F)c4)C3=O)n2)CC1 (stereo not drawn) [Compound 64],,80,0,20,,90,0,30,,80,20,80,90,90,100,,
CCC(C)c1ccn(C2OCN(c3cccc(OC(F)(F)F)c3)C2=O)n1 (stereo not drawn) [Compound 67],,60,20,40,,100,50,90,,100,60,70,90,100,100,,
CC1(c2ccn(C3OCN(c4cccc(OC(F)(F)F)c4)C3=O)n2)CC1 (stereo not drawn) [Compound 69],,40,0,20,,0,0,0,,100,30,30,80,20,100,,
COc1cc(OC)cc(N2CCC(n3ccc(C(C)(C)C)n3)C2=O)c1 (stereo not drawn) [Compound 71],,0,0,0,,30,0,20,,0,0,0,60,30,80,,
CCOC(=O)c1cccc(N2CCC(n3ccc(C(C)(C)C)n3)C2=O)c1 (stereo not drawn) [Compound 72],,40,0,20,,90,40,80,,50,0,50,50,90,80,,
CC(C)(C)c1ccn(C2CCN(c3ccc(F)c(Br)c3)C2=O)n1 (stereo not drawn) [Compound 75],,30,0,0,,,70,80,,80,70,,40,90,100,,
CC(C)(C)c1ccn(C2CCN(c3cccc(OC(F)F)c3)C2=O)n1 (stereo not drawn) [Compound 76],,80,20,40,,80,30,80,,90,40,90,80,100,90,,
Cc1ccc(N2CCC(n3ccc(C(C)(C)C)n3)C2=O)cc1OC(F)F (stereo not drawn) [Compound 79],,20,0,20,,90,0,30,,90,30,40,50,90,90,,
CC(C)Oc1cccc(N2CCC(n3ccc(C(C)C)n3)C2=O)c1 (stereo not drawn) [Compound 82],,60,0,30,,90,20,30,,100,30,60,80,100,100,,
CCC(C)c1ccn(C2CCN(c3cccc(OC(C)C)c3)C2=O)n1 (stereo not drawn) [Compound 83],,70,20,20,,100,40,40,,70,60,70,80,100,100,,
